In patent publication US20200231638A1, “STABILIZED ANTI-MICROBIAL PEPTIDES” (priority 2015, published 2020):
Bridge positions count the residues as written; N and C are the ends. Square brackets hold non-standard residues; d marks the D form. Peptide text beside a SMILES is read from it. R8 = C=CCCCCCC[C@@](C)(N)C(=O)O; S5 = C=CCCC[C@](C)(N)C(=O)O; Nle = CCCC[C@H](N)C(=O)O

Legend:
E. coli = type: cell-based, Escherichia coli
Outline: (§1)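 Microdilution MIC test in polyanion-depleted MHB, with a final inoculum of 5×10^5 CFU/ml and 20-24 h incubation at 37° C.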

B. cereus = type: cell-based, Bacillus cereus
Outline: as §1

S. aureus = type: cell-based, Staphylococcus aureus
Outline: as §1

P. aeruginosa = type: cell-based, Pseudomonas aeruginosa
Outline: as §1

human red blood cells = type: cell-based; settings: red cells of human, 1 h, 25
Outline: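 Hemolysis expressed as absorbance of released hemoglobin (570 nm) normalized between untreated and 1% Triton-X100 controls, with MHC taken as peptide concentration giving under 1% release. Peptide dilutions were exposed for 1 h at 37° C to a 1% (v/v) suspension of washed human red cells in PBS.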

| MIC E. coli (E. coli) | MIC B. cereus (B. cereus) | MIC S. aureus (S. aureus) | MIC P. aeruginosa (P. aeruginosa) | SMILES | % Hemolysis at 25 μg/ml (human red blood cells) |
| --- | --- | --- | --- | --- | --- |
| 3.1 µg/mL | 6.2 µg/mL | 12.5 µg/mL | 12.5 µg/mL | CCCC[C@H](NC(=O)[C@@H](NC(=O)[C@H](CCC(=O)O)NC(=O)CNC(=O)[C@@H](NC(=O)[C@H](Cc1ccccc1)NC(=O)[C@H](C)NC(=O)[C@H](CCCCN)NC(=O)CNC(=O)[C@H](Cc1ccccc1)NC(=O)[C@H](CCCCN)NC(=O)[C@]1(C)CCCC=CCCCCCC[C@@](C)(NC(=O)[C@@H](NC(=O)CN)[C@@H](C)CC)C(=O)N[C@@H](CCCCN)C(=O)N[C@@H](Cc2ccccc2)C(=O)N[C@@H](CC(C)C)C(=O)N[C@@H](Cc2c[nH]cn2)C(=O)N[C@@H](CO)C(=O)N[C@@H](C)C(=O)N1)C(C)C)[C@@H](C)CC)C(=O)N[C@@H](CC(N)=O)C(=O)N[C@@H](CO)C(N)=O [Mag(i + 7)2] (H-GI[R8]KFLHSA[S5]KFGKAFVGEI[Nle]NS-NH2; staple 3-10 (inferred); N-terminus and C-terminus assumed) | 69.3% |
| 1.6 µg/mL | 6.2 µg/mL | 25 µg/mL | 3.1 µg/mL | CCCC[C@H](NC(=O)[C@@H](NC(=O)[C@H](CCC(=O)O)NC(=O)CNC(=O)[C@@H](NC(=O)[C@H](Cc1ccccc1)NC(=O)[C@H](C)NC(=O)[C@H](CCCCN)NC(=O)CNC(=O)[C@]1(C)CCCC=CCCCCCC[C@@](C)(NC(=O)[C@H](CCCCN)NC(=O)CNC(=O)[C@@H](NC(=O)CN)[C@@H](C)CC)C(=O)N[C@@H](CC(C)C)C(=O)N[C@@H](Cc2c[nH]cn2)C(=O)N[C@@H](CO)C(=O)N[C@@H](C)C(=O)N[C@@H](CCCCN)C(=O)N[C@@H](CCCCN)C(=O)N1)C(C)C)[C@@H](C)CC)C(=O)N[C@@H](CC(N)=O)C(=O)N[C@@H](CO)C(N)=O [Mag(i + 7)4] (H-GIGK[R8]LHSAKK[S5]GKAFVGEI[Nle]NS-NH2; staple 5-12 (inferred); N-terminus and C-terminus assumed) | 42.6% |
| 3.1 µg/mL | 3.1 µg/mL | 6.2 µg/mL | 3.1 µg/mL | CCCC[C@H](NC(=O)[C@@H](NC(=O)[C@H](CCC(=O)O)NC(=O)CNC(=O)[C@@H](NC(=O)[C@H](Cc1ccccc1)NC(=O)[C@H](C)NC(=O)[C@H](CCCCN)NC(=O)[C@]1(C)CCCC=CCCCCCC[C@@](C)(NC(=O)[C@H](Cc2ccccc2)NC(=O)[C@H](CCCCN)NC(=O)CNC(=O)[C@@H](NC(=O)CN)[C@@H](C)CC)C(=O)N[C@@H](Cc2c[nH]cn2)C(=O)N[C@@H](CO)C(=O)N[C@@H](C)C(=O)N[C@@H](CCCCN)C(=O)N[C@@H](CCCCN)C(=O)N[C@@H](Cc2ccccc2)C(=O)N1)C(C)C)[C@@H](C)CC)C(=O)N[C@@H](CC(N)=O)C(=O)N[C@@H](CO)C(N)=O [Mag(i + 7)5] (H-GIGKF[R8]HSAKKF[S5]KAFVGEI[Nle]NS-NH2; staple 6-13 (inferred); N-terminus and C-terminus assumed) | 87.0% |

The remaining lines, values behind:

| SMILES | MIC E. coli (E. coli) | MIC B. cereus (B. cereus) | MIC S. aureus (S. aureus) | MIC P. aeruginosa (P. aeruginosa) | % Hemolysis at 25 μg/ml (human red blood cells) |
| --- | --- | --- | --- | --- | --- |
| CCCC[C@@H]1NC(=O)[C@H]([C@@H](C)CC)NC(=O)[C@@](C)(NC(=O)CNC(=O)[C@@H](NC(=O)[C@H](Cc2ccccc2)NC(=O)[C@H](C)NC(=O)[C@H](CCCCN)NC(=O)CNC(=O)[C@H](Cc2ccccc2)NC(=O)[C@H](CCCCN)NC(=O)[C@H](CCCCN)NC(=O)[C@H](C)NC(=O)[C@H](CO)NC(=O)[C@H](Cc2c[nH]cn2)NC(=O)[C@H](CC(C)C)NC(=O)[C@H](Cc2ccccc2)NC(=O)[C@H](CCCCN)NC(=O)CNC(=O)[C@@H](NC(=O)CN)[C@@H](C)CC)C(C)C)CCCC=CCCC[C@@](C)(C(N)=O)NC(=O)[C@H](CC(N)=O)NC1=O [Mag(i + 4)18, GIGKFLHSAKKFGKAFVGXIBNX] (H-GIGKFLHSAKKFGKAFVG[S5]I[Nle]N[S5]-NH2; staple 19-23) | 1.6 µg/mL | 3.1 µg/mL | 1.6 µg/mL | 3.1 µg/mL | 96.5% |
| CCCC[C@H](NC(=O)[C@@H](NC(=O)[C@H](CCC(=O)O)NC(=O)CNC(=O)[C@@H](NC(=O)[C@H](Cc1ccccc1)NC(=O)[C@H](C)NC(=O)[C@H](CCCCN)NC(=O)CNC(=O)[C@H](Cc1ccccc1)NC(=O)[C@H](CCCCN)NC(=O)[C@H](CCCCN)NC(=O)[C@]1(C)CCCC=CCCCCCC[C@@](C)(NC(=O)CN)C(=O)NCC(=O)N[C@@H](CCCCN)C(=O)N[C@@H](Cc2ccccc2)C(=O)N[C@@H](CC(C)C)C(=O)N[C@@H](Cc2c[nH]cn2)C(=O)N[C@@H](CO)C(=O)N1)C(C)C)[C@@H](C)CC)C(=O)N[C@@H](CC(N)=O)C(=O)N[C@@H](CO)C(N)=O [Mag(i + 7)1] (H-G[R8]GKFLHS[S5]KKFGKAFVGEI[Nle]NS-NH2; staple 2-9 (inferred); N-terminus and C-terminus assumed) | 3.1 µg/mL | 3.1 µg/mL | 12.5 µg/mL | 3.1 µg/mL | 49.9% |
| CCCC[C@H](NC(=O)[C@@H](NC(=O)[C@H](CCC(=O)O)NC(=O)CNC(=O)[C@@H](NC(=O)[C@H](Cc1ccccc1)NC(=O)[C@H](C)NC(=O)[C@H](CCCCN)NC(=O)CNC(=O)[C@H](Cc1ccccc1)NC(=O)[C@]1(C)CCCC=CCCCCCC[C@@](C)(NC(=O)CNC(=O)[C@@H](NC(=O)CN)[C@@H](C)CC)C(=O)N[C@@H](Cc2ccccc2)C(=O)N[C@@H](CC(C)C)C(=O)N[C@@H](Cc2c[nH]cn2)C(=O)N[C@@H](CO)C(=O)N[C@@H](C)C(=O)N[C@@H](CCCCN)C(=O)N1)C(C)C)[C@@H](C)CC)C(=O)N[C@@H](CC(N)=O)C(=O)N[C@@H](CO)C(N)=O [Mag(i + 7)3] (H-GIG[R8]FLHSAK[S5]FGKAFVGEI[Nle]NS-NH2; staple 4-11 (inferred); N-terminus and C-terminus assumed) | 6.2 µg/mL | 12.5 µg/mL | 12.5 µg/mL | 25 µg/mL | 52.5% |
| CCCC[C@H](NC(=O)[C@@H](NC(=O)[C@H](CCC(=O)O)NC(=O)CNC(=O)[C@@H](NC(=O)[C@H](Cc1ccccc1)NC(=O)[C@H](C)NC(=O)[C@]1(C)CCCC=CCCCCCC[C@@](C)(NC(=O)[C@H](CC(C)C)NC(=O)[C@H](Cc2ccccc2)NC(=O)[C@H](CCCCN)NC(=O)CNC(=O)[C@@H](NC(=O)CN)[C@@H](C)CC)C(=O)N[C@@H](CO)C(=O)N[C@@H](C)C(=O)N[C@@H](CCCCN)C(=O)N[C@@H](CCCCN)C(=O)N[C@@H](Cc2ccccc2)C(=O)NCC(=O)N1)C(C)C)[C@@H](C)CC)C(=O)N[C@@H](CC(N)=O)C(=O)N[C@@H](CO)C(N)=O [Mag(i + 7)6] (H-GIGKFL[R8]SAKKFG[S5]AFVGEI[Nle]NS-NH2; staple 7-14 (inferred); N-terminus and C-terminus assumed) | 3.1 µg/mL | 6.2 µg/mL | 6.2 µg/mL | 25 µg/mL | 47.1% |
